Target: T1, SdLPMO10A (Saccharophagus degradans, UniProt Q21N34)
T1 construct: gene cbpA; AA10 catalytic domain plus CBM2; native signal peptide (24 residues) replaced by pelB, pET-26b(+), E. coli BL21(DE3) periplasm, Ni-NTA purified; N-terminal His25; Cu2+-saturated
Assay: MALDI-TOF MS of oxidized chitin oligosaccharides
Format: biochemical
Details: electron donor, 1 mM; 10 µM Cu2+-saturated enzyme; alpha-chitin; 20 mM Tris-HCl pH 8.0, 30 °C, 48 h

T1 sequence (Q21N34 entry or part of it): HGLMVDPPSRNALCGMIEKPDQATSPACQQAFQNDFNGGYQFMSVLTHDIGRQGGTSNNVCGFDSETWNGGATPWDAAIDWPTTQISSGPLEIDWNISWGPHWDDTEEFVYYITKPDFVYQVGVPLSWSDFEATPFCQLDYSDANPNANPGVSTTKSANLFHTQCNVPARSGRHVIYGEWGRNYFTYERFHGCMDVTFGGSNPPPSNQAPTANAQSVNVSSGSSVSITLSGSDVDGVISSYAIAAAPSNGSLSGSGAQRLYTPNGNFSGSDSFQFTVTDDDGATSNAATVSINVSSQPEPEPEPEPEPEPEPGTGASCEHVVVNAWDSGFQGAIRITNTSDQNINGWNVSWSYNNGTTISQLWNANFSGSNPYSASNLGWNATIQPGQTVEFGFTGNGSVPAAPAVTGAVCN

SMILES: O=C1O[C@H]([C@@H](O)CO)C(O)=C1O [ascorbic acid]
- MALDI-TOF MS of oxidized chitin oligosaccharides: lacking SdLPMO10A or ascorbic acid, no discernible quantity of oxidized chitin oligosaccharides was generated

— article PMC12385910, “The Functional Characterization of an AA10 Lytic Polysaccharide Monooxygenase from Saccharophagus degradans 2-40^T for Enhanced Chitin Biodegradation” (Foods, 2025)
